The source of these data is patent US11739077B2, “Small molecule inhibitors of ubiquitin specific protease 1 (USP1) and uses thereof” (Insilico Medicine IP Limited, priority 2021, dated 2023).

The target of experiment [1] is Human recombinant USP1/UAF1 (Homo sapiens (Human), UniProt O94782). As to the kind of experiment: Enzymatic assay, USP1/UAF1 with Ubiquitin Rhodamine 110. The experiment is classed as biochemical. Particulars: 2 nM USP1/UAF1, 500 nM Ubiquitin Rhodamine 110, 15 minutes preincubation at RT. The method, then:
Human recombinant USP1/UAF1 expressed in baculovirus infected Sf21 cells were used (R&D, E-568-050). Test compound and/or vehicle was incubated with 2 nM of USP1/UAF1 in modified HEPES buffer pH 8.0 for 15 minutes at RT. The reaction was initiated by addition of 500 nM of Ubiquitin Rhodamine 110 (R&D, U-555-050) for kinetic reading. Slope change of fluorescence intensity was read spectrofluorimetrically at 485 nm/535 nm.

The test system of another experiment is MDA-MB-436 cells. Kind of experiment: MDA-MB-436 breast cancer cell proliferation assay (CellTiter-Glo). The following applies: 7 days. The format is cell-based. As to the method: MDA-MB-436 cells were grown in Leibovitz's L-15 medium with 10 ug/ml insulin, 16 ug/ml glutathione, 10% FBS. Cells were passaged at subconfluence after trypsinization and maintained in incubators at 37° C. in a humidified atmosphere with 5% CO2.
Cell proliferation was determined using CellTiter-Glo® Luminescent Cell Viability Assay (Promega, #G7573). MDA-MB-436 cells were seeded in 384-well plates and allowed to attach for 24 h. Compounds were added into 384-well plate by ECHO, and incubated at 37° C. in a humidified atmosphere with 5% CO2. After 7 days, CellTiter-Glo was added into 384 well plates, contents were mixed on an orbital shaker at […] for 2 min before centrifuging the plate for 2 min at 1000 rpm. After incubation at RT for 30 min, luminescence was read on envision.
Background: ATP-based viability assays read luminescence as a measure of living cells.

Sequence of Human recombinant USP1/UAF1 (O94782 whole entry): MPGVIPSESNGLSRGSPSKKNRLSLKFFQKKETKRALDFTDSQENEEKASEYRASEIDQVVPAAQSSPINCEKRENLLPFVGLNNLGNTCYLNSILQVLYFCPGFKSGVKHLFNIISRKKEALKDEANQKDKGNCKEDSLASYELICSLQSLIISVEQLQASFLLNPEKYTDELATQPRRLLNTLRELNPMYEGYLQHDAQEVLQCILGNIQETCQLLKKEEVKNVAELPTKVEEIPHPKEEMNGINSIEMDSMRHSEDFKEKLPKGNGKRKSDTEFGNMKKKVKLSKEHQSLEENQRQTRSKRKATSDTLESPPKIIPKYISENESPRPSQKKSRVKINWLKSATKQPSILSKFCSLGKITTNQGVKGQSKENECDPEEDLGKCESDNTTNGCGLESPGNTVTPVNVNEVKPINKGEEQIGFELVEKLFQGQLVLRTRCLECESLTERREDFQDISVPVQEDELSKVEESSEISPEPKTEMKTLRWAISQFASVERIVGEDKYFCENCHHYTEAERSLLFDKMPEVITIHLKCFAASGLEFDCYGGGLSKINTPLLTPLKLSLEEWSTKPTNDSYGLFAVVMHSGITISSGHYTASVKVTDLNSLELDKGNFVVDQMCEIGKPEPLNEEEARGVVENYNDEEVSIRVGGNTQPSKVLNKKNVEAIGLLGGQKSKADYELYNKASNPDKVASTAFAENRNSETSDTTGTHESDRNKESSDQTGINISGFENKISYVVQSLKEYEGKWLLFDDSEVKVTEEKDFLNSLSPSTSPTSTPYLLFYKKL
Sequence of Human recombinant USP1/UAF1 (Q8TAF3 whole entry partner): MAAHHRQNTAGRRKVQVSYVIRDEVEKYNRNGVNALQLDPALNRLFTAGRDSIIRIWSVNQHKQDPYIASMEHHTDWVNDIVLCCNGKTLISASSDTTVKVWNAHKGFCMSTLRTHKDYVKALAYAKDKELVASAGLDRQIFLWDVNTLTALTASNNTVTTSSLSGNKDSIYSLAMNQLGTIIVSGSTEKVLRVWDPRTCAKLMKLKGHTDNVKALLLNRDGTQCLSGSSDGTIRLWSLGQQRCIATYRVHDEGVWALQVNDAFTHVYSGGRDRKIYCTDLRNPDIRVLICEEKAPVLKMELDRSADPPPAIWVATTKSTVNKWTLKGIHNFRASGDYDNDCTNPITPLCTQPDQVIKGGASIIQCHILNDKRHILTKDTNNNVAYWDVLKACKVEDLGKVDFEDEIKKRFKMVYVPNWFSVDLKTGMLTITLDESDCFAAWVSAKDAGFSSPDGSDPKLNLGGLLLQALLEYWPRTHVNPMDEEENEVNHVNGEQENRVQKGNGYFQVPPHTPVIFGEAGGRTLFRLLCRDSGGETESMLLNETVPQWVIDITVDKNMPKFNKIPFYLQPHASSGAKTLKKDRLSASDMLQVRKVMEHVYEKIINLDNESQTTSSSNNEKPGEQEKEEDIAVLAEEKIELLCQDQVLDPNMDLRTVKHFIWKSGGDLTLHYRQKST

As to `CC(C)c1ncccc1-c1nn(C)c2c1CN(c1ccc(-c3nc(C(F)(F)F)cn3C)cc1)CC2` [Example 1, 3-(2-isopropylpyridin-3-yl)-1-methyl-5-(4-(1-methyl-4-(trifluoromethyl)-1H-imidazol-2-yl)phenyl)-4,5,6,7-tetrahydro-1H-pyrazolo[4,3-c]pyridine], the IC50 (in general, the concentration at which inhibition is half-maximal) in experiment [1] is less than 50 nM; with MDA-MB-436 cells (Homo sapiens, 168 h) it was less than 50 nM.

On to `CC(C)c1ncncc1-c1nn(C)c2c1CN(c1ccc(-c3nc(C(F)(F)F)cn3C)cc1)CC2` [Example 2, 3-(4-isopropylpyrimidin-5-yl)-1-methyl-5-(4-(1-methyl-4-(trifluoromethyl)-1H-imidazol-2-yl)phenyl)-4,5,6,7-tetrahydro-1H-pyrazolo[4,3-c]pyridine], for which the IC50 in experiment [1] is 50 to 1000 nM; with MDA-MB-436 cells (Homo sapiens, 168 h) it was 50 to 1000 nM.

For `COc1ncnc(C2CC2)c1-c1nn(C)c2c1CN(c1ccc(-c3nc(C(F)(F)F)cn3C)cc1)CC2` [Example 3, 3-(4-cyclopropyl-6-methoxypyrimidin-5-yl)-1-methyl-5-(4-(1-methyl-4-(trifluoromethyl)-1H-imidazol-2-yl)phenyl)-4,5,6,7-tetrahydro-1H-pyrazolo[4,3-c]pyridine], the IC50 in experiment [1] is less than 50 nM; in the experiment on MDA-MB-436 cells (Homo sapiens, 168 h) it was less than 50 nM.

`[2H]C([2H])([2H])n1nc(-c2c(OC)ncnc2C2CC2)c2c1CCN(c1ccc(-c3nc(C(F)(F)F)cn3C(C)C)cc1)C2` [Example 4, 3-(4-cyclopropyl-6-methoxypyrimidin-5-yl)-5-(4-(1-isopropyl-4-(trifluoromethyl)-1H-imidazol-2-yl)phenyl)-1-(methyl-d3)-4,5,6,7-tetrahydro-1H-pyrazolo[4,3-c]pyridine]: the IC50 in experiment [1] was less than 50 nM; in the experiment with MDA-MB-436 cells (Homo sapiens, 168 h), less than 50 nM.

For `COc1ncnc(C2CC2)c1-c1nn(C)c2c1CN(c1ccc(-c3nc(C(F)(F)F)cn3C)cn1)CC2` [Example 5, 3-(4-cyclopropyl-6-methoxypyrimidin-5-yl)-1-methyl-5-(5-(1-methyl-4-(trifluoromethyl)-1H-imidazol-2-yl)pyridin-2-yl)-4,5,6,7-tetrahydro-1H-pyrazolo[4,3-c]pyridine], the IC50 in experiment [1] is less than 50 nM; with MDA-MB-436 cells (Homo sapiens, 168 h), less than 50 nM.

Regarding `COc1ncnc(C2CC2)c1-c1nn(C)c2c1CN(c1ccc(-c3nc(C(F)(F)F)cn3C)nc1)CC2` [Example 6, 3-(4-cyclopropyl-6-methoxypyrimidin-5-yl)-1-methyl-5-(6-(1-methyl-4-(trifluoromethyl)-1H-imidazol-2-yl)pyridin-3-yl)-4,5,6,7-tetrahydro-1H-pyrazolo[4,3-c]pyridine], the IC50 was less than 50 nM in experiment [1] and less than 50 nM in the experiment with MDA-MB-436 cells (Homo sapiens, 168 h).

For the compound `COc1ncnc(C2CC2)c1-c1nn(C)c2c1CN(c1ccc(-c3nc(C(F)(F)F)cn3C)cc1F)CC2` [Example 7, 3-(4-cyclopropyl-6-methoxypyrimidin-5-yl)-5-(2-fluoro-4-(1-methyl-4-(trifluoromethyl)-1H-imidazol-2-yl)phenyl)-1-methyl-4,5,6,7-tetrahydro-1H-pyrazolo[4,3-c]pyridine], the IC50 in experiment [1] was less than 50 nM; with MDA-MB-436 cells (Homo sapiens, 168 h), less than 50 nM.

For the compound `COc1ncnc(C2CC2)c1-c1nn(C)c2c1CN(c1ccc(-c3nc(C(F)(F)F)cn3C)c(F)c1)CC2` [Example 8, 3-(4-cyclopropyl-6-methoxypyrimidin-5-yl)-5-(3-fluoro-4-(1-methyl-4-(trifluoromethyl)-1H-imidazol-2-yl)phenyl)-1-methyl-4,5,6,7-tetrahydro-1H-pyrazolo[4,3-c]pyridine], the IC50 in experiment [1] was less than 50 nM; in the experiment with MDA-MB-436 cells (Homo sapiens, 168 h) it was less than 50 nM.

On to `COc1ncnc(C2CC2)c1-c1nn(C(F)F)c2c1CN(c1ccc(-c3nc(C(F)(F)F)cn3C)cc1)CC2` [Example 9, 3-(4-cyclopropyl-6-methoxypyrimidin-5-yl)-1-(difluoromethyl)-5-(4-(1-methyl-4-(trifluoromethyl)-1H-imidazol-2-yl)phenyl)-4,5,6,7-tetrahydro-1H-pyrazolo[4,3-c]pyridine], for which the IC50 in experiment [1] is less than 50 nM; in the experiment on MDA-MB-436 cells (Homo sapiens, 168 h), less than 50 nM.

Turning to `COc1ncnc(C2CC2)c1-c1nn(C)c2c1CN(c1ccc(-c3nc(C(F)(F)F)cn3C(C)C)cn1)CC2` [Example 10, 3-(4-cyclopropyl-6-methoxypyrimidin-5-yl)-5-(5-(1-isopropyl-4-(trifluoromethyl)-1H-imidazol-2-yl)pyridin-2-yl)-1-methyl-4,5,6,7-tetrahydro-1H-pyrazolo[4,3-c]pyridine], the IC50 is less than 50 nM in experiment [1] and less than 50 nM in the experiment on MDA-MB-436 cells (Homo sapiens, 168 h).

In the case of `[2H]C([2H])([2H])n1nc(-c2c(OC)ncnc2C2CC2)c2c1CCN(c1ccc(-c3nc(C(F)(F)F)cn3C(C)C)cn1)C2` [Example 11, 3-(4-cyclopropyl-6-methoxypyrimidin-5-yl)-5-(5-(1-isopropyl-4-(trifluoromethyl)-1H-imidazol-2-yl)pyridin-2-yl)-1-(methyl-d3)-4,5,6,7-tetrahydro-1H-pyrazolo[4,3-c]pyridine], the IC50 in experiment [1] is less than 50 nM; in the experiment with MDA-MB-436 cells (Homo sapiens, 168 h), less than 50 nM.

As for `Cc1ncnc(C2CC2)c1-c1nn(C)c2c1CN(c1ccc(-c3nc(C(F)(F)F)cn3C)cn1)CC2` [Example 13, 3-(4-cyclopropyl-6-methylpyrimidin-5-yl)-1-methyl-5-(5-(1-methyl-4-(trifluoromethyl)-1H-imidazol-2-yl)pyridin-2-yl)-4,5,6,7-tetrahydro-1H-pyrazolo[4,3-c]pyridine], the IC50 in experiment [1] was in the range of 50 to 1000 nM; in the experiment with MDA-MB-436 cells (Homo sapiens, 168 h), 50 to 1000 nM.

On to `COc1ncnc(C2CC2)c1-c1nn(C)c2c1CN(c1ccc(-n3nc(C(F)(F)F)cc3C)cn1)CC2` [Example 15, 3-(4-cyclopropyl-6-methoxypyrimidin-5-yl)-1-methyl-5-(5-(5-methyl-3-(trifluoromethyl)-1H-pyrazol-1-yl)pyridin-2-yl)-4,5,6,7-tetrahydro-1H-pyrazolo[4,3-c]pyridine], for which the values for the IC50 (in experiment [1]; with MDA-MB-436 cells) were less than 50 nM and 50 to 1000 nM, respectively.

Take `CCn1nc(-c2c(OC)ncnc2C2CC2)c2c1CCN(c1ccc(-c3nc(C(F)(F)F)cn3C)cn1)C2` [Example 16, 3-(4-cyclopropyl-6-methoxypyrimidin-5-yl)-1-ethyl-5-(5-(1-methyl-4-(trifluoromethyl)-1H-imidazol-2-yl)pyridin-2-yl)-4,5,6,7-tetrahydro-1H-pyrazolo[4,3-c]pyridine]: the IC50 in experiment [1] lay in the range of 50 to 1000 nM; in the experiment with MDA-MB-436 cells (Homo sapiens, 168 h), 50 to 1000 nM.

For `[2H]C([2H])([2H])n1nc(-c2c(OC)ncnc2C2CC2)c2c1CCN(c1ccc(-c3nc(C(F)(F)F)cn3C)cc1)C2` [Example 17, 3-(4-cyclopropyl-6-methoxypyrimidin-5-yl)-1-(methyl-d3)-5-(4-(1-methyl-4-(trifluoromethyl)-1H-imidazol-2-yl)phenyl)-4,5,6,7-tetrahydro-1H-pyrazolo[4,3-c]pyridine], the IC50 in experiment [1] was less than 50 nM; in the experiment on MDA-MB-436 cells (Homo sapiens, 168 h), less than 50 nM.

Consider `[2H]C([2H])([2H])n1nc(-c2c(OC)ncnc2C2CC2)c2c1CCN(c1ccc(-c3nc(C(F)(F)F)cn3C)cn1)C2` [Example 18, 3-(4-cyclopropyl-6-methoxypyrimidin-5-yl)-1-(methyl-d3)-5-(5-(1-methyl-4-(trifluoromethyl)-1H-imidazol-2-yl)pyridin-2-yl)-4,5,6,7-tetrahydro-1H-pyrazolo[4,3-c]pyridine], for which the IC50 is less than 50 nM in experiment [1] and less than 50 nM in the experiment on MDA-MB-436 cells (Homo sapiens, 168 h).

With `COc1ncnc(C2CC2)c1-c1n[nH]c2c1CN(c1ccc(-c3nc(C(F)(F)F)cn3C(C)C)cn1)CC2` [Example 20, 3-(4-cyclopropyl-6-methoxypyrimidin-5-yl)-5-(5-(1-isopropyl-4-(trifluoromethyl)-1H-imidazol-2-yl)pyridin-2-yl)-4,5,6,7-tetrahydro-1H-pyrazolo[4,3-c]pyridine], the IC50 in experiment [1] was in the range of 50 to 1000 nM; with MDA-MB-436 cells (Homo sapiens, 168 h) it was 50 to 1000 nM.

Take `Cn1cc(C(F)(F)F)nc1-c1ccc(N2CCc3c(c(-c4cccnc4OC(F)F)nn3C)C2)cc1` [Example 24, 3-(2-(difluoromethoxy)pyridin-3-yl)-1-methyl-5-(4-(1-methyl-4-(trifluoromethyl)-1H-imidazol-2-yl)phenyl)-4,5,6,7-tetrahydro-1H-pyrazolo[4,3-c]pyridine]: the IC50 in experiment [1] was less than 50 nM; in the experiment on MDA-MB-436 cells (Homo sapiens, 168 h), 50 to 1000 nM.

For `CCn1cc(C(F)(F)F)nc1-c1ccc(N2CCc3c(c(-c4c(OC)ncnc4C4CC4)nn3C)C2)nc1` [Example 25, 3-(4-cyclopropyl-6-methoxypyrimidin-5-yl)-5-(5-(1-ethyl-4-(trifluoromethyl)-1H-imidazol-2-yl)pyridin-2-yl)-1-methyl-4,5,6,7-tetrahydro-1H-pyrazolo[4,3-c]pyridine], the IC50 is less than 50 nM in experiment [1] and less than 50 nM in the experiment on MDA-MB-436 cells (Homo sapiens, 168 h).

Take `COc1ncnc(C2CC2)c1-c1nn(C)c2c1CN(c1cnc(-c3nc(C(F)(F)F)cn3C)nc1)CC2` [Example 26, 3-(4-cyclopropyl-6-methoxypyrimidin-5-yl)-1-methyl-5-(2-(1-methyl-4-(trifluoromethyl)-1H-imidazol-2-yl)pyrimidin-5-yl)-4,5,6,7-tetrahydro-1H-pyrazolo[4,3-c]pyridine]: the IC50 in experiment [1] fell in the range of 50 to 1000 nM; in the experiment on MDA-MB-436 cells (Homo sapiens, 168 h), 50 to 1000 nM.
